Measured values from patent publication US20240425938A1, “COMPOSITIONS AND METHODS FOR CHAR[…] FREQUENCY MUTATIONS” (The Broad Institute, Inc., priority 2022, published 2024).

System: P. aeruginosa isolates
Assay type: cell-based, Pseudomonas aeruginosa

CC(C)(O/N=C(\C(=O)N[C@@H]1C(=O)N2C(C(=O)[O-])=C(C[n+]3ccccc3)CS[C@H]12)c1csc(N)n1)C(=O)O [ceftazidime]
Antibiotic resistance profile of isolates: resistance

C[C@@H](O)[C@H]1C(=O)N2C(C(=O)O)=C(S[C@@H]3CN[C@H](C(=O)N(C)C)C3)[C@H](C)[C@H]12 [meropenem]
Antibiotic resistance profile of isolates: resistance
